Source: article PMC5834809 (Cancer Science, 2018)

Tests used:
[1] = test system: Japanese women with HR+ ABC; conditions: first‐line therapy; cited from earlier work
[2] = test system: Japanese postmenopausal patients with ER+/HER2− advanced breast cancer; assay: Exposure to study drugs and dose modifications; assay type: in vivo, human; conditions: for Median average duration of dose interruption (range): during total cycles
[3] = test system: non‐Japanese postmenopausal women with ER+ and HER2− ABC; conditions: PALOMA‐1; letrozole 2.5 mg QD alone or with palbociclib 125 mg QD 3/1 schedule; cited from earlier work
[4] = test system: postmenopausal women with ER+/HER2− ABC; conditions: PALOMA‐2; letrozole with or without palbociclib (3/1 schedule); cited from earlier work
[5] = Plasma palbociclib steady-state pharmacokinetics; assay type: in vivo, human
[6] = test system: patients with advanced solid tumors refractory to standard therapy; conditions: single‐agent, Japanese patients, phase I part 1; cited from earlier work

| Structure (SMILES) | Median time to progression [1] | Cycle delay ([2]; N = 42) | Dose interruption ([2]; N = 42) | Median average duration of dose interruption (range) [2] | Median average duration of cycle delay (range) ([2]; in vivo) | Median time to first dose interruption (range) ([2]; in vivo) | other results |
| --- | --- | --- | --- | --- | --- | --- | --- |
| CC(C)(C#N)c1cc(Cn2cncn2)cc(C(C)(C)C#N)c1 [anastrozole] | approximately 12 months |  |  |  |  |  |  |
| C=C1C[C@@H]2[C@H](CC[C@]3(C)C(=O)CC[C@@H]23)[C@@]2(C)C=CC(=O)C=C12 [exemestane] | approximately 12 months |  |  |  |  |  |  |
| N#Cc1ccc(C(c2ccc(C#N)cc2)n2cncn2)cc1 [letrozole] |  | 8 (19.0) n (%) | 30 (71.4) n (%) | 1.0 (1.0‐24.5) d | 7 (5‐47) d | 107 (5‐404) d | Median PFS [3]: 10.2 months; Median PFS [4]: 14.5 months |
| CC(=O)c1c(C)c2cnc(Nc3ccc(N4CCNCC4)cn3)nc2n(C2CCCC2)c1=O [palbociclib] |  | 39 (92.9) n (%) | 35 (83.3) n (%) | 5.5 (1.0‐8.5) d | 7 (5‐47) d | 15 (5‐124) d | Tmax ([5]; human, plasma, oral): 4.9 h; Ctrough, predose concentration on cycle 2/day 15 ([5]; with letrozole, N = 30, geometric mean (geometric %CV)): 86.8 (40) ng/mL; Ctrough, predose concentration on cycle 1/day 15 ([5]; with letrozole, N = 32, geometric mean (geometric %CV)): 89.4 (44) ng/mL; Ctrough, predose concentration on day 15, cycles 1 and 2 ([5]; with letrozole, N = 38, geometric mean of within‐patient mean Ctrough (geometric %CV)): 90.1 (42) ng/mL; ≥1 dose reduction ([2]; N = 42): 25 (59.5) n (%); Median time to dose reduction (range), first dose reduction ([2]; in vivo): 64 (29‐232) d; Median time to dose reduction (range), second dose reduction ([2]; in vivo): 114 (64‐415) d; Patients with a dose reduction to 75 mg ([2]; maximum dose reduction, N = 42): 8 (19.0) n (%); Patients with a dose reduction to 100 mg ([2]; maximum dose reduction, N = 42): 17 (40.5) n (%); Maximum tolerated dose [6]: 125 mg |
